# Laboratory results: US20050267182A1, “Urea derivatives as FLT-3 modulators” (Ambit Biosciences Corporation, priority 2003, published 2005)
# How the values were obtained:
# FLT3 = target: T1, FLT3 (Homo sapiens, UniProt P36888); test: Binding constant (Kd) measurement, phage-displayed kinase competition binding assay; details: for Binding Assay: FLT3(DKIN) / Kd: FLT3(DKIN) construct; for Binding Assay: FLT3(JMminus): FLT3(JMminus) construct
# T1 construct: FLT3(DKIN); made in house
# T1 sequence (P36888 610-943 limits assumed): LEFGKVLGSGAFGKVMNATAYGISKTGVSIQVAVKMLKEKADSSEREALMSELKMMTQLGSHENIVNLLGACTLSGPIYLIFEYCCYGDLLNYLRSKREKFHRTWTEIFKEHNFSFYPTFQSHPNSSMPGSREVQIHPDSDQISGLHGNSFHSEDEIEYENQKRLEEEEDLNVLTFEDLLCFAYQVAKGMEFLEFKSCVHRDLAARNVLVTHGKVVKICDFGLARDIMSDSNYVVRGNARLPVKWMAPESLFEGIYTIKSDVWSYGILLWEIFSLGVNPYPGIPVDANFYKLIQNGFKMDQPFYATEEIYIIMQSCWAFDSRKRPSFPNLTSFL
# Source text: Binding Constant (Kd) Measurements for Small-Molecule-Kinase Interactions
# The term “ND” represents non-determined values.
# MV4,11 cells = test: FLT3 assay using MV4,11 cells (cellular proliferation, MTS); assay type: cell-based, human; details: cell assay code CS0001; for IC50: Homo sapiens, MV4-11
# Method: The ability of FLT3 kinase inhibitors to inhibit cellular proliferation was also examined. MV4:11 was a cell line derived from a patient with acute myelogenous leukemia.
# FLT3 Assay Using MV4,11 Cells
# MV4,11 cells were grown in an incubator @ 37° C. in 5% CO2 in Medium 2 (RPMI, 10% FBS, 4 mM glutamine, Penn/Strep). The cells were counted daily and the cell density was kept between 1e5 and 8e5 cells/ml.
# Day One: Enough cells were harvested for experiments to be conducted in 50 ml conical tubes. The harvested cells were spun at 500 g for 5 min at 4° C., the supernatant was then aspirated and the cells were resuspended in the starting volume of 1×PBS. The cells were again spun at 500 g for 5 min at 4° C. and the supernatant again aspirated. The cells were then resuspended in medium 3 (DMEM w/ glut, 10% FBS, Penn/Strep) to a density of 4e5 cells/ml and incubated (37° C. in 5% CO2 O/N.
# Day Two: The cells were counted and enough medium 3 was added to decrease density to 2e5 cells/ml. 50 ul (10,000 cells) was aliquoted into each well of a 96 well optical plate using multichannel pipetman. The compound plate was then set up by aliquoting 3 μl of negative control (DMSO) into column 1 of a 96 well 300 ul polypropylene plate, aliquoting 3 μt of positive control (10 mM AB20121) into column 12 of plate, and aliquoting 3 μl of appropriate compounds from serial dilutions into columns 2-11. To each well, 150 μl of Medium 3 was added and 50 μl of compound/medium mixture from compound plate into rows of optical plate in duplicate. The cells were then incubated @ 37° C. in 5% CO2 for 3 days.
# Day Five: MTS was thawed in a H2O bath. 20 μl of MTS was added to each well of optical plate and the cells were incubated (37° C. in 5% CO2 for 2 hours. The plate was then placed on a plate shaker for 30 seconds on high speed.
Binding Assay: FLT3(DKIN) (FLT3),"Cell Assay: CS0001:IC50 (MV4,11 cells)",SMILES,also measured
+ + + +,+ + +,CNC(=O)c1ccc(NC(=O)Nc2cc(C(C)(C)C)on2)cc1 [Compound N85],–
+ + +,+ +,Cc1nc(C(=O)Nc2ccc(NC(=O)Nc3cc(C(C)(C)C)on3)cc2)nn1-c1cc(Cl)cc(Cl)c1 [Compound N15],–
+ + + +,+ + + +,Cc1ccc(NC(=O)c2ccc(NC(=O)Nc3cc(C(C)(C)C)on3)cc2)cc1 [Compound N84],–
+ +,+ +,CC(C)(C)c1cc(NC(=O)Nc2ccc(NC(=O)c3c[nH]c(=O)nc3-c3ccncc3)cc2)no1 [Compound N19],–
+ + + +,+ + +,COc1cc(OC)nc(Oc2cccnc2C(=O)Nc2ccc(NC(=O)Nc3cc(C(C)(C)C)on3)cc2)n1 [Compound N56],–
–,+ +,CC(C)(C)c1cc(NC(=O)Nc2ccc(NC(=O)c3nnsc3Sc3ccc(Cl)cc3)cc2)no1 [Compound N71],Binding Assay: FLT3(JMminus) (FLT3): + + +
+ + +,+ +,CC(C)(C)c1cc(NC(=O)Nc2ccc(NC(=O)c3cnc4ccccc4n3)cc2)no1 [Compound N149],–
+ + + +,+ + +,CC(C)(C)c1cc(NC(=O)Nc2ccc(NC(=O)c3cccnc3)cc2)co1 [Compound N1],–
+ + +,+ + +,CC(C)(C)c1cc(NC(=O)Nc2ccc(NC(=O)c3cc(Cl)nc(Cl)c3)cc2)no1 [Compound N132],–
+ + + +,+ + +,Cc1ccc(-c2cc(C(=O)Nc3ccc(NC(=O)Nc4cc(C(C)(C)C)on4)cc3)c(C)o2)cc1 [Compound N120],–
+ + + +,+ + +,CCOC(=O)CCc1c(C)[nH]c(C(=O)Nc2ccc(NC(=O)Nc3cc(C(C)(C)C)on3)cc2)c1C [Compound N83],–
+ + +,+ + +,CC(C)(C)c1cc(NC(=O)Nc2ccc(NC(=O)C3=Cc4cc(F)cc(S(C)(=O)=O)c4C3)cc2)no1 [Compound N58],–
–,+ +,CC(C)(C)c1cc(NC(=O)Nc2ccc(NC(=O)c3nn(-c4cccc(C(F)(F)F)c4)c(=O)cc3O)cc2)no1 [Compound N185],Binding Assay: FLT3(JMminus) (FLT3): + + +
+ + + +,+ + +,Cc1nc(N)cc(Nc2ccc(NC(=O)Nc3cc(C(C)(C)C)on3)cc2)n1 [Compound O10],–
+ + + +,+ + +,COc1nc(C)cc(C)c1C(=O)Nc1ccc(NC(=O)Nc2cc(C(C)(C)C)on2)cc1 [Compound N22],–
+ + + +,+ + + +,Cc1cccnc1-c1noc(-c2ccc(NC(=O)Nc3cc(C(C)(C)C)on3)cc2)n1 [Compound P4],–
+ + + +,+ + +,CC(C)(C)c1cc(NC(=O)Nc2ccc(NC(=O)c3ccc4cccnc4n3)cc2)no1 [Compound N144],–

Binding Assay: FLT3(DKIN) (FLT3),"Cell Assay: CS0001:IC50 (MV4,11 cells)",SMILES,also measured
+ + + +,+ + +,CC(C)(C)c1cc(NC(=O)Nc2ccc(NC(=O)c3ccnc4ccccc34)cc2)no1 [Compound N141],–
–,+ +,CC(C)CCOC(=O)c1nnsc1NC(=O)Nc1ccc(Br)cc1 [Compound Z36],Kd (FLT3): > 10 µM
+ +,+ +,CC(C)(C)c1cc(NC(=O)Nc2ccc(NC(=O)CC(N)c3ccccc3Cl)cc2)no1 (stereo not drawn) [Compound N44],–
+ + + +,+ + + +,CC(C)(C)c1cc(NC(=O)Nc2ccc(NC(=O)CCc3ccccc3)cc2)no1 [Compound N96],–
+ + +,+ +,Cc1cc(C)c(C(=O)Nc2ccc(NC(=O)Nc3cc(C(C)(C)C)on3)cc2)c(C)c1 [Compound N31],–
+ + +,+ +,CC(C)(C)c1cc(NC(=O)Nc2ccc(NC(=O)c3c4ccccc4nc4ccccc34)cc2)no1 [Compound N148],–
+ + +,+ + +,CC(C)(C)c1cc(NC(=O)Nc2ccc(NC(=O)c3cc4cccnc4nc3C(F)(F)F)cc2)no1 [Compound N61],–
+ + +,–,O=C(Nc1cccc(Cl)c1)Nc1cc(C(F)(F)F)cc(Cl)n1 [Compound Z74],–
+ + + +,–,CC(C)(C)c1cc(NC(=O)Nc2ccc(NC(=O)c3c(Cl)cccc3Cl)cc2)no1 [Compound N94],–
+ + + +,–,Cc1ccc(CNc2ccc(NC(=O)Nc3cc(C(C)(C)C)on3)cc2)cc1 [Compound O9],–
+ + + +,–,Cc1ccc(NC(=O)Nc2cc(C(F)(F)F)cc(Cl)n2)cc1 [Compound W1],–
+ +,–,Cc1c(NC(=O)Nc2cc(C(C)(C)C)on2)c(=O)n(-c2ccccc2)n1C [Compound Z45],–
+ + +,–,CC(C)(C)c1cc(NC(=O)NN2CCCCC2)no1 [Compound Z57],–
+ + +,–,CCOC(=O)NN(C(=O)Nc1cc(C(C)(C)C)on1)c1ccc(OC)cc1 [Compound J13],–
+ +,–,Cc1ccc(S(=O)(=O)Nc2ccc(NC(=O)Nc3cc(C(C)(C)C)on3)cc2)cc1 [Compound V2],–
+ +,–,CC(C)(C)c1cc(NC(=O)Nc2ccc(NS(=O)(=O)c3ccccc3)cc2)no1 [Compound V1],–

# Continued, compound first:
SMILES,Binding Assay: FLT3(DKIN) (FLT3),"Cell Assay: CS0001:IC50 (MV4,11 cells)",also measured
COc1ccc(NC(=O)Nc2cc(C(C)(C)C)on2)cc1OC [Compound A55],–,–,"Binding Assay: FLT3(JMminus) (FLT3): + +; IC50 (MV4,11 cells): > 10 µM"
CC(C)(C)c1cc(NC(=O)Nc2ccc(OCCN3CCOCC3)cc2)no1 [Compound G40],+ + +,+ +,–
CC(C)(C)c1cc(NC(=O)Nc2ccc(OCc3ccc(C(=O)c4ccccc4)cc3)cc2)no1 [Compound G9],+ + + +,+ + +,–
CC(C)(C)c1cc(NC(=O)Nc2ccc(NC(=O)c3cc(O)c4cccc(O)c4n3)cc2)no1 [Compound N176],–,–,"Binding Assay: FLT3(JMminus) (FLT3): + + +; IC50 (MV4,11 cells): > 10 µM"
Cc1nccn1CCOc1ccc(NC(=O)Nc2cc(C(C)(C)C)on2)cc1 [Compound G51],+ + + +,+ + +,–
CC(C)(C)c1cc(NC(=O)Nc2ccc(OCCc3ccc(F)cc3)cc2)no1 [Compound G24],+ + + +,+ + +,–
CC(C)(C)c1csc(NC(=O)Nc2ccc(OCc3ccccc3)cc2)n1 [Compound G49],+ +,+ + +,–
CC(C)(C)c1cc(NC(=O)Nc2ccc(OCCN3CCC(O)CC3)cc2)no1 [Compound G48],+ + +,+ +,–
CC(C)(C)c1cc(NC(=O)Nc2ccc(O)cc2)no1 [Compound A31],+ + +,–,–
CC(C)(C)c1cc(NC(=O)Nc2ccc(Cl)cc2)no1 [Compound A27],+ + +,–,–
CCN(CC)CCNC(=O)c1ccc(NC(=O)Nc2cc(C(C)(C)C)on2)cc1 [Compound N102],–,–,Kd (FLT3): > 10 µM
CC(C)(C)c1cc(NC(=O)Nc2ccccc2)no1 [Compound A2],+ + + +,–,–
CC(C)(C)c1cc(NC(=O)Nc2cc(C(C)(C)C)on2)on1 [Compound A54],+ + +,–,–
CC(C)(C)c1cc(NC(=O)Nc2ccc3cc4ccccc4cc3c2)no1 [Compound A18],+ + +,–,–
CC(C)(C)c1cc(NC(=O)Nc2ccc(OC(F)F)cc2)no1 [Compound A12],+ +,–,–
CC(C)(C)c1cc(NC(=O)Nc2ccc(OCc3c(Cl)cccc3Cl)cc2)no1 [Compound G19],+ + + +,–,–
CC(C)(C)c1cc(NC(=O)Nc2ccc(F)cc2)no1 [Compound A47],+ + +,–,–
CC(C)c1ccc(NC(=O)Nc2cc(C(C)(C)C)no2)cc1 [Compound A11],+ +,–,–
CN1CN(c2ccc(OCc3ccccc3)cc2)C(=O)N(c2cc(C(C)(C)C)on2)C1 [Compound E4],+ + +,–,–
